Experimental data published in ChEMBL document CHEMBL4706686, “Design, synthesis and biological evaluation of dihydrofurocoumarin derivatives as potent neuraminidase inhibitors” (Bioorg Med Chem Lett, 2021).
pIC50: −log10 of the molar value.

Assay: Inhibition of Influenza virus H5N1 neuraminidase
Design: species or system H5N1 subtype

Row | SMILES | pIC50
1 | Cc1cc(=O)oc2c3c(ccc12)O/C(=C\c1ccc(OS(C)(=O)=O)cc1)C3=O | 4.49
2 | COc1cc(/C=C2\Oc3ccc4c(C)cc(=O)oc4c3C2=O)cc(OC)c1O | 6.82
3 | CCOc1cc(/C=C2\Oc3ccc4c(C)cc(=O)oc4c3C2=O)ccc1O | 4.52
4 | COc1ccc(/C=C2\Oc3ccc4c(C)cc(=O)oc4c3C2=O)cc1O | 7.40
5 | Cc1cc(=O)oc2c3c(ccc12)O/C(=C\c1ccc([N+](=O)[O-])c(O)c1)C3=O | 7.52
6 | Cc1cc(=O)oc2c3c(ccc12)O/C(=C\c1cc([N+](=O)[O-])ccc1F)C3=O | 4.00
7 | CCOC(=O)C1=C[C@@H](OC(CC)CC)[C@H](NC(C)=O)[C@@H](N)C1 [OSELTAMIVIR] | 7.00
8 | Cc1cc(=O)oc2c3c(ccc12)O/C(=C\c1ccc(O)c([N+](=O)[O-])c1)C3=O | 7.70
9 | Cc1cc(=O)oc2c3c(ccc12)O/C(=C\c1ccc(Cl)cc1Cl)C3=O | 4.44
10 | Cc1cc(=O)oc2c3c(ccc12)O/C(=C\c1ccccn1)C3=O | 4.40
11 | CCC(CC)O[C@@H]1C=C(C(=O)O)C[C@H](N)[C@H]1NC(C)=O [OSELTAMIVIR CARBOXYLATE] | 7.40
12 | CCCOc1ccc(/C=C2\Oc3ccc4c(C)cc(=O)oc4c3C2=O)cc1 | 4.34
